# In US20220184071A1, “GEPOTIDACIN FOR USE IN THE TREATMENT OF BACTERIAL URINARY TRACT INFECTIONS” (GlaxoSmithKline Intellectual Property Development Limited, priority 2019, published 2022):
# Where two headings read alike, the source gives them in different places.
# Assays:
# Format in all cases: cell-based
# [1] = tested on: Staphylococcus epidermidis; assay: MIC by CLSI broth microdilution in CAMHB and urine, Example 5 Method 2; settings: for Mean MIC: n = 4; for MIC: Staphylococcus epidermidis
# Method: The compounds were tested in serial two-fold dilutions and the minimum inhibitory concentration (MIC) was determined as the lowest concentration of the compound that inhibited visible growth.
# In particular, gepotidacin was tested against 4 strains of Staphylococcus epidermidis from the collection of isolates at Laboratory Specialists, Inc., Westlake, Ohio.
# Levofloxacin was included as the comparator in the study to determine the effect of urine on the in vitro activity of gepotidacin against Staphylococcus epidermidis. MICs were determined by broth microdilution according CLSI methods.
# The data shown in the table below are results from an in vitro study conducted with the same S. epidermidis isolates described above, to determine the effect of urine on the in vitro activity of gepotidacin and levofloxacin against S. epidermidis. Study strains were tested for MICs according to reference CLSI broth microdilution method using cation-adjusted Mueller Hinton Broth (CAMHB) and with the addition of 25%, 50% and 100% urine (not pH adjusted, pH 6.42) and 100% urine (pH adjusted, 7.31 and 8.07).
# [2] = tested on: S. anginosus; assay: MIC by CLSI broth microdilution, Example 5 second study; settings: Streptococcus anginosus; 10 isolates, 2013-2014
# From the text: (§1) A second study tested gepotidacin by CLSI broth microdilution against bacterial isolates collected from patients with acute bacterial skin and soft tissue infections between 2013-2014. Amoxicillin/clavulanic acid, linezolid, fusidic acid, ceftriaxone, ceftaroline, vancomycin, penicillin, quinupristin/dalfopristin, erythromycin, clindamycin, meropenem, tetracycline, chloramphenicol, flucloxacillin, telavancin, daptomycin, trimethoprim/sulfamethoxazole, gentamicin, levofloxacin, tigecycline and cefuroxime were included as comparators. MICs were determined by broth microdilution according to CLSI methods.
# [3] = tested on: viridans streptococci; assay: as above; settings: 19 isolates, 2013-2014
# From the text: as §1
# [4] = tested on: Bifidobacterium pseudocatenulatum; assay: MIC by agar dilution, drug-resistant isolates; settings: clindamycin R; 1 isolate
# Method: (§2) Antimicrobial activity was determined by agar dilution using the Clinical and Laboratory Standards Institute (CLSI) recommended procedure.
# (§3) The compounds were tested in serial two-fold dilutions and the minimum inhibitory concentration (MIC) was determined as the lowest concentration of the compound that inhibited visible growth. Gepotidacin was tested against 333 gram-negative anaerobic and 203 gram-positive anaerobic isolates collected from clinical samples in North America and Europe from 2000 to 2017; the majority collected from 2013 to 2016.
# (§4) Additional analysis was performed from the results of the study described in Method 1 above, to determine the in vitro activity of gepotidacin against gram-negative and gram-positive anaerobic organisms with resistance to ceftriaxone, clindamycin, imipenem, metronidazole, moxifloxacin and piperacillin/tazobactam.
# [5] = tested on: Bifidobacterium breve; assay: MIC by agar dilution, drug-resistant isolates; settings: moxifloxacin R; 1 isolate
# Method: as §2, §3, §4
# [6] = tested on: Veillonella, non-speciated; assay: MIC by agar dilution, drug-resistant isolates
# Method: as §2, §3, §4
# [7] = tested on: Eubacterium limosum; assay: MIC by agar dilution, drug-resistant isolates; settings: moxifloxacin R; 2 isolates
# Method: as §2, §3, §4
# [8] = tested on: Bacteroides fragilis; assay: MIC by agar dilution, drug-resistant isolates
# Method: as §2, §3, §4
# [9] = tested on: Bacteroides uniformis; assay: MIC by agar dilution, drug-resistant isolates
# Method: as §2, §3, §4
# [10] = tested on: Porphyromonas somerae; assay: MIC by agar dilution, drug-resistant isolates; settings: clindamycin R; 1 isolate
# Method: as §2, §3, §4
# [11] = tested on: Bacteroides vulgatus; assay: MIC by agar dilution, drug-resistant isolates
# Method: as §2, §3, §4
# [12] = tested on: Fusobacterium, non-speciated; assay: MIC by agar dilution, drug-resistant isolates; settings: 1 isolate
# Method: as §2, §3, §4
# [13] = tested on: Bifidobacterium adolescentis; assay: MIC by agar dilution, drug-resistant isolates; settings: moxifloxacin R; 1 isolate
# Method: as §2, §3, §4
# [14] = tested on: Eubacterium, non-speciated; assay: MIC by agar dilution, drug-resistant isolates; settings: 1 isolate
# Method: as §2, §3, §4
# [15] = tested on: Bacteroides ovatus; assay: MIC by agar dilution, drug-resistant isolates
# Method: as §2, §3, §4
# [16] = tested on: Bifidobacterium longum; assay: MIC by agar dilution, drug-resistant isolates; settings: moxifloxacin R; 1 isolate
# Method: as §2, §3, §4
# [17] = tested on: Veillonella parvula; assay: MIC by agar dilution, drug-resistant isolates
# Method: as §2, §3, §4
# [18] = tested on: Bacteroides stercoris; assay: MIC by agar dilution, drug-resistant isolates; settings: ceftriaxone R, 2 isolates
# Method: as §2, §3, §4
# [19] = tested on: Lactobacillus, non-speciated; assay: MIC by agar dilution, drug-resistant isolates
# Method: as §2, §3, §4
# [20] = tested on: Lactobacillus gasseri; assay: MIC by agar dilution, drug-resistant isolates; settings: clindamycin R; 2 isolates
# Method: as §2, §3, §4
compound,measurement,setting,value
"O=c1ccc2ncc(=O)n3c2n1C[C@H]3CN1CCC(NCc2cc3c(cn2)OCCC3)CC1 [gepotidacin, (2R)-2-({4-[(3,4-dihydro-2H-pyrano[2,3-c]pyridin-6-ylmethyl)amino]-1-piperidinyl}methyl)-1,2-dihydro-3H,8H-2a,5,8a-triazaacenaphthylene-3,8-dione]",MIC range,[1]; 2 isolates of methicillin-resistant S. epidermidis,0.25 to 0.5 µg/mL
same,Mean Dilution Difference,[1]; 25% Urine (pH 7.09) vs CAMHB,−0.75
same,Mean difference,[1]; 25% Urine (pH 7.09) vs CAMHB,−0.17
same,N(%) ± 1 dilution,[1]; 25% Urine (pH 7.09) vs CAMHB,4 (100%)
same,N(%) ± 2 dilution,[1]; 25% Urine (pH 7.09) vs CAMHB,4 (100%)
same,Mean MIC,[1]; 25% Urine (pH 7.09),0.25 µg/mL
same,Mean Dilution Difference,[1]; 50% Urine (6.99) vs CAMHB,−1.01
same,Mean difference,[1]; 50% Urine (6.99) vs CAMHB,−0.21
same,N(%) ± 1 dilution,[1]; 50% Urine (6.99) vs CAMHB,4 (100%)
same,N(%) ± 2 dilution,[1]; 50% Urine (6.99) vs CAMHB,4 (100%)
same,Mean MIC,[1]; 50% Urine (6.99),0.21 µg/mL
same,Mean Dilution Difference,[1]; 100% Urine (pH 6.42) vs CAMHB,−0.26
same,Mean difference,[1]; 100% Urine (pH 6.42) vs CAMHB,−0.07
same,N(%) ± 1 dilution,[1]; 100% Urine (pH 6.42) vs CAMHB,4 (100%)
same,N(%) ± 2 dilution,[1]; 100% Urine (pH 6.42) vs CAMHB,4 (100%)
same,Mean MIC,[1]; 100% Urine (pH 6.42),0.35 µg/mL
same,Mean Dilution Difference,[1]; 100% Urine (pH 7.31) vs CAMHB,0.25
same,Mean difference,[1]; 100% Urine (pH 7.31) vs CAMHB,0.08
same,N(%) ± 1 dilution,[1]; 100% Urine (pH 7.31) vs CAMHB,4 (100%)
same,N(%) ± 2 dilution,[1]; 100% Urine (pH 7.31) vs CAMHB,4 (100%)
same,Mean MIC,[1]; 100% Urine (pH 7.31),0.5 µg/mL
same,Mean Dilution Difference,[1]; 100% Urine (pH 8.07) vs CAMHB,0.00
same,Mean difference,[1]; 100% Urine (pH 8.07) vs CAMHB,0.00
same,N(%) ± 1 dilution,[1]; 100% Urine (pH 8.07) vs CAMHB,4 (100%)
same,N(%) ± 2 dilution,[1]; 100% Urine (pH 8.07) vs CAMHB,4 (100%)
same,Mean MIC,[1]; 100% Urine (pH 8.07),0.42 µg/mL
same,mean dilution differences (range),[1]; 100% urine (conclusion),0 to −0.26
same,Mean MIC,"[1]; CAMHB (ref. method, pH 7.2)",0.42 µg/mL
same,MIC,"[1]; 2 isolates of methicillin-susceptible S. epidermidis, read-out: MIC",0.5 µg/mL
same,MIC,"[1]; at least one strain of methicillin-susceptible or methicillin-resistant S. epidermidis, read-out: MIC",≤ 0.5 µg/mL
same,MIC,"[1]; read-out: MICs, methicillin-susceptible and methicillin-resistant isolates tested (conclusion), heading: MICs",< 0.5 µg/mL
same,mean dilution differences (range),[1]; addition of urine vs CAMHB,0 to −1.01
same,MIC fold greater than the levofloxacin MIC,[1]; each of the methicillin-resistant S. epidermidis,4 fold
same,MIC fold greater than the levofloxacin MIC,[1]; methicillin-susceptible S. epidermidis,2 fold
same,MIC90,[2],1 µg/mL
same,MIC90,[3],0.5 µg/mL
same,Gepotidacin MIC range,[4],4 µg/mL
same,Gepotidacin MIC range,[5],0.5 µg/mL
same,Gepotidacin MIC range,"[6]; clindamycin R, 4 isolates",0.125 µg/mL
same,Gepotidacin MIC range,"[6]; moxifloxacin R, 1 isolate",≤0.015 µg/mL
same,Gepotidacin MIC range,[7],0.25 to 0.5 µg/mL
same,Gepotidacin MIC range,"[8]; ceftriaxone R, 35 isolates",0.25 to 32 µg/mL
same,Gepotidacin MIC range,"[8]; clindamycin R, 22 isolates",≤0.015 to 32 µg/mL
same,Gepotidacin MIC range,"[8]; imipenem R, 1 isolate",0.5 µg/mL
same,Gepotidacin MIC range,"[8]; moxifloxacin R, 19 isolates",0.25 to 32 µg/mL
same,Gepotidacin MIC range,"[8]; pip/tazo R, 2 isolates",0.5 to 4 µg/mL
same,Gepotidacin MIC range,"[9]; ceftriaxone R, 3 isolates",1 to 2 µg/mL
same,Gepotidacin MIC range,"[9]; clindamycin R, 1 isolate",1 µg/mL
same,Gepotidacin MIC range,"[9]; moxifloxacin R, 1 isolate",1 µg/mL
same,Gepotidacin MIC range,[10],0.06 µg/mL
same,Gepotidacin MIC range,"[11]; ceftriaxone R, 7 isolates",≤0.015 to 4 µg/mL
same,Gepotidacin MIC range,"[11]; clindamycin R, 4 isolates",≤0.015 to 2 µg/mL
same,Gepotidacin MIC range,"[11]; moxifloxacin R, 3 isolates",0.25 to 4 µg/mL
same,Gepotidacin MIC range,[12]; ceftriaxone R,2 µg/mL
same,Gepotidacin MIC range,[12]; clindamycin R,2 µg/mL
same,Gepotidacin MIC range,[13],0.25 µg/mL
same,Gepotidacin MIC range,[14]; ceftriaxone R,2 µg/mL
same,Gepotidacin MIC range,[14]; clindamycin R,2 µg/mL
same,Gepotidacin MIC range,[14]; moxifloxacin R,2 µg/mL
same,Gepotidacin MIC range,"[15]; ceftriaxone R, 8 isolates",1 to 4 µg/mL
same,Gepotidacin MIC range,"[15]; clindamycin R, 4 isolates",1 to 4 µg/mL
same,Gepotidacin MIC range,"[15]; moxifloxacin R, 2 isolates",1 to 4 µg/mL
same,Gepotidacin MIC range,[16],0.12 µg/mL
same,Gepotidacin MIC range,"[17]; ceftriaxone R, 1 isolate",≤0.015 µg/mL
same,Gepotidacin MIC range,"[17]; clindamycin R, 1 isolate",0.125 µg/mL
same,Gepotidacin MIC range,"[17]; moxifloxacin R, 2 isolates",≤0.015 to 0.03 µg/mL
same,Gepotidacin MIC range,"[17]; pip/tazo R, 1 isolate",0.03 µg/mL
same,Gepotidacin MIC range,[18],0.12 to 1 µg/mL
same,Gepotidacin MIC range,"[19]; clindamycin R, 1 isolate",0.03 µg/mL
same,Gepotidacin MIC range,"[19]; imipenem R, 9 isolates",0.03 to 1 µg/mL
same,Gepotidacin MIC range,[20],0.5 to 1 µg/mL
